Laboratory results taken from patent US20150276714A1, “METHOD OF IDENTIFYING OR EVALUATING BENEFICIAL ACTIVES AND COMPOSITIONS CONTAINING THE SAME” (The Procter & Gamble Company, priority 2012, published 2015).

Assays:
[1] = system: human dermal fibroblasts (BJ cell line); assay: Extracellular acidification rate (glycolysis), XF Extracellular Flux Analyzer; assay type: cell-based
Source text: This method enables the non-lethal, simultaneous detection of metabolic indicators associated with the oxidative phosphorylation and glycolysis metabolic pathways in a controlled environment. The method also enables the collection of kinetic data. When assessing the metabolic response to a stressor or test agent, it is important to assess both metabolic pathways simultaneously to understand how the two metabolic pathways interact with the stressor or test agent and/or to one another. Additionally, it is important to monitor the metabolic pathways in real time (i.e., repeating periodic measurements) to observe trends and/or transient responses that may be missed when using methods that provide only static data. Thus, destructive tests are not suitable for use herein since they typically only allow for a single measurement. With regard to the fibroblasts discussed above in FIGS. 5A, 5B, 5C, 5D, 5E, 6, 7A, 7B, 7C, 7D, 7E and 8, frozen human dermal fibroblasts were obtained from the BJ cell line commercially available from ATCC, Bethesda, Md. The fibroblasts were grown to 70-80% confluence in a culture medium of Eagle's Minimum Essential Medium (“EMEM”) supplemented with 10% fetal bovine serum (“FBS”) and gentamicin/amphotericin B ×500 solution (EMEM and FBS are available from ATCC, and gentamicin/amphotericin B ×500 solution is available from Invitrogen). The fibroblasts were plated at 1×10^5 cells per well in Gelatin-coated plates 24 hours prior to testing. Each well included 100 μL of the fibroblast medium described above. A test medium was made from Dulbecco's Modified Eagle Medium (available from Seahorse Bioscience), 25 mM glucose and 1 mM pyruvate. The test medium was warmed to 37° C. and the pH adjusted to 7.4. The cells were grown and plated at 37° C. and 5% CO2 air. The fibroblast medium in the wells was replaced by the test medium 1 hour prior to taking measurements. Oxygen consumption rate and extracellular acidification rate may be detected using an XF Extracellular Flux Analyzer or equivalent. […]

[2] = system: human dermal fibroblasts (BJ cell line); assay: Oxygen consumption rate (oxidative phosphorylation), XF Extracellular Flux Analyzer; assay type: cell-based
Source text: This method enables the non-lethal, simultaneous detection of metabolic indicators associated with the oxidative phosphorylation and glycolysis metabolic pathways in a controlled environment. The method also enables the collection of kinetic data. When assessing the metabolic response to a stressor or test agent, it is important to assess both metabolic pathways simultaneously to understand how the two metabolic pathways interact with the stressor or test agent and/or to one another. Additionally, it is important to monitor the metabolic pathways in real time (i.e., repeating periodic measurements) to observe trends and/or transient responses that may be missed when using methods that provide only static data. Thus, destructive tests are not suitable for use herein since they typically only allow for a single measurement. With regard to the fibroblasts discussed above in FIGS. 5A, 5B, 5C, 5D, 5E, 6, 7A, 7B, 7C, 7D, 7E and 8, frozen human dermal fibroblasts were obtained from the BJ cell line commercially available from ATCC, Bethesda, Md. […] Oxygen consumption rate and extracellular acidification rate may be detected using an XF Extracellular Flux Analyzer or equivalent. […]

SMILES: NC(=O)c1cccnc1 [niacinamide]
- effect on hydrogen peroxide-induced decrease in glycolysis metabolism ([1]; plate 1, 0.1 mM and […] niacinamide in combination with […] hydrogen peroxide): lessen the detrimental effect of the hydrogen peroxide on glycolysis metabolism
- effect on hydrogen peroxide-induced decrease in extracellular acidification rate ([1]; plate 2, 0.5 mM and 1.0 mM niacinamide in combination with […] hydrogen peroxide): prevent the acidification rate from decreasing below the basal value
- effect on fibroblast glycolysis ([1]; plate 2, 1.0 mM niacinamide by itself): substantially no effect on fibroblast glycolysis
- effect on oxphos metabolism ([2]; 1.0 mM niacinamide by itself): no significant affect on the oxphos metabolism
- effect on OCR in presence of hydrogen peroxide ([2]; niacinamide 1.0 mM in combination with […] hydrogen peroxide): lessen the initial decrease in OCR somewhat
